Experiments:
PDE4B3 = molecular target: T1, PDE4B3 (Mus musculus, UniProt Q8VBU5); assay: Fission yeast 5FOA growth assay, strain expressing PDE4B3; assay type: cell-based, murine; details: 5FOA growth screen; for 1 Assay (20 uM), PDE 4B3: 20 uM compound; for 2 Assay (2 uM), PDE 4B3: 2 uM compound
T1 construct: targets used in the assays are full-length proteins (as opposed to simply the catalytic domain); expressed in transfected cells; host or cells: Schizosaccharomyces pombe, gene integrated at the cgs2 locus
T1 sequence (Q8VBU5 1-721): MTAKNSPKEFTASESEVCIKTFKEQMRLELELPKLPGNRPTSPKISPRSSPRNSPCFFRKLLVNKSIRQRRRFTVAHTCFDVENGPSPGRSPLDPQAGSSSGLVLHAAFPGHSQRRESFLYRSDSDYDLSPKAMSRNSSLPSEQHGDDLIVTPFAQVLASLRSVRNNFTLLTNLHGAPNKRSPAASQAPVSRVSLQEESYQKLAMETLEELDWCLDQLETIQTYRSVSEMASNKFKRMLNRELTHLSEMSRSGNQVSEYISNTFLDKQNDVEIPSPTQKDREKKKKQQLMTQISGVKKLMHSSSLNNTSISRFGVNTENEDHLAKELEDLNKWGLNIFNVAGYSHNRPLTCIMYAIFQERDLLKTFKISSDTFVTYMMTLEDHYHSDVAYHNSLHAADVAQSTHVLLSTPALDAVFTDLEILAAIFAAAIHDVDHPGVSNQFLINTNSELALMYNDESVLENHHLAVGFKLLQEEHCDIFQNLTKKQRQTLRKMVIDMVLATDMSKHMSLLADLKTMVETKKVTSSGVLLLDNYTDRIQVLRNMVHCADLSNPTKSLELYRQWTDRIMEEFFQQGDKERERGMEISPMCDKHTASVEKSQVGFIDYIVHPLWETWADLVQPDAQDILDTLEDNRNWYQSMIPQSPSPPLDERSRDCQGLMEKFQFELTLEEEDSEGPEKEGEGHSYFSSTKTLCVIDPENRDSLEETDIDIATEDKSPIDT
Experimental: High throughput drug screens were carried out at the Broad Institute's Chemical Biology Program screening facility (Broad Institute, Cambridge, Mass.). Depending upon the strain, cultures were pregrown to exponential phase in EMM complete medium containing from 0.5 to 2.5 mM cAMP to repress fbp1-ura4 transcription. […] Starting cell concentrations ranged from 0.5×10^5 to 4×10^5 cells/ml depending on the screening strain. […] Other positive control dishes contained 5 mM cAMP in the 5FOA medium. Cultures were grown for 48 hours at 30° C., sealed in an airtight container with moist paper towels to prevent evaporation. Optical densities (OD600) of cultures were measured using a microplate reader. Bioinformatic analysis of the results to determine composite Z scores was performed as previously described^30, 31.
Cells were pregrown in EMM medium [MP Biomedicals (Solon, OH), 3% glucose, filter-sterilized to avoid carmelization, which would introduce variability into the optical density of the medium] containing from 0 mM to 2.5 mM cAMP (or either 0.5 mM or 1.0 mM cGMP). This was to repress expression of the fbp1-ura4 reporter prior to exposure of cells to 5FOA medium. Cells were grown at 30° C. to exponential phase (approximately 10^7 cells/ml). […] Starting cell concentrations ranged from 0.5×10^5 to 4×10^5 cells/ml depending on the screening strain. […] Other positive control dishes contained 5 mM cAMP in the 5FOA medium for PDEs that lack appropriate control compounds. Cultures were grown for 48 hours at 30° C., sealed in an airtight container with moist paper towels to prevent evaporation. Optical densities (OD600) of cultures were measured using a microplate reader. Bioinformatic analysis of the results to determine composite Z scores was performed as previously described (1, 3).

PDE7A = molecular target: T2, PDE7A (Homo sapiens, UniProt Q13946); assay: Fission yeast 5FOA growth assay, strain expressing PDE7A; assay type: cell-based; details: 5FOA growth screen; for 1 Assay (20 uM), PDE 7A: 20 uM compound; for 2 Assay (2 uM), PDE 7A: 2 uM compound
T2 construct: targets used in the assays are full-length proteins (as opposed to simply the catalytic domain); expressed in transfected cells; host or cells: Schizosaccharomyces pombe, gene integrated at the cgs2 locus
T2 sequence (Q13946 whole entry, the tested form may be a part): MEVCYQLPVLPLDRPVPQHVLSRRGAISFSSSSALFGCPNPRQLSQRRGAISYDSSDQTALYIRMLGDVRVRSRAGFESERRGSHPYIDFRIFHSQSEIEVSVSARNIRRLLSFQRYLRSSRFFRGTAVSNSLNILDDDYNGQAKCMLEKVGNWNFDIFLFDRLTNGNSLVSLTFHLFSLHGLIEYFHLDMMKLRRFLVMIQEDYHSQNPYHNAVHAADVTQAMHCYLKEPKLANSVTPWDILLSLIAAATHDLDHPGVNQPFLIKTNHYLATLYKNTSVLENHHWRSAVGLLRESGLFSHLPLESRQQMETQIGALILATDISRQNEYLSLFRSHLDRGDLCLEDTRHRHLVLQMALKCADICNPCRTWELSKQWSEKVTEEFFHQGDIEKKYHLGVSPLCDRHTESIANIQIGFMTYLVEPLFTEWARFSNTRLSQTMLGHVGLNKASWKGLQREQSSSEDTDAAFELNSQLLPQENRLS
Experimental: Cells were pregrown in EMM medium [MP Biomedicals (Solon, OH), 3% glucose, filter-sterilized to avoid carmelization, which would introduce variability into the optical density of the medium] containing from 0 mM to 2.5 mM cAMP (or either 0.5 mM or 1.0 mM cGMP). This was to repress expression of the fbp1-ura4 reporter prior to exposure of cells to 5FOA medium. Cells were grown at 30° C. to exponential phase (approximately 10^7 cells/ml). Cells were collected by centrifugation and resuspended in 5FOA medium, and 25 μl were transferred to 384-well microtiter dishes (untreated, with flat clear bottoms) that had been pre-filled with 25 μl 5FOA medium and pre-pinned with 100 nl of compounds (stock solutions were generally 10 mM). Starting cell concentrations ranged from 0.5×10^5 to 4×10^5 cells/ml depending on the screening strain. […] Other positive control dishes contained 5 mM cAMP in the 5FOA medium for PDEs that lack appropriate control compounds. Cultures were grown for 48 hours at 30° C., sealed in an airtight container with moist paper towels to prevent evaporation. Optical densities (OD600) of cultures were measured using a microplate reader. Bioinformatic analysis of the results to determine composite Z scores was performed as previously described (1, 3).

Compound | 1 Assay (20 uM), PDE 4B3 (PDE4B3) | 1 Assay (20 uM), PDE 7A (PDE7A) | 2 Assay (2 uM), PDE 4B3 (PDE4B3) | 2 Assay (2 uM), PDE 7A (PDE7A)
Cc1ccc2c(c1)c1nc3ccccc3nc1n2C(C)C [Compound 41] | 200.51 | 0.31 | – | –
COC(=O)C1=C(C)N(C2CCCCC2)C(=O)/C1=C\c1cccs1 [Compound 22] | 70.26 | 132.82 | 37.54 | 57.22
COC(=O)C1=C(C)N(c2ccc(C(C)C)cc2)C(=O)/C1=C\c1cccs1 [2008, O19] | −2.99 ND ND ND ND | 2.78 ND ND ND ND | – | –

Next, values leading:

1 Assay (20 uM), PDE 4B3 (PDE4B3) | 1 Assay (20 uM), PDE 7A (PDE7A) | 2 Assay (2 uM), PDE 4B3 (PDE4B3) | 2 Assay (2 uM), PDE 7A (PDE7A) | Compound
−0.61 ND ND ND ND | 2.43 ND ND ND ND | – | – | COC(=O)C1=C(C)N(c2ccccc2)/C(=C/c2cccs2)C1=O [2008, K19]
24.16 ND ND ND ND | −0.08 ND ND ND ND | – | – | COC(=O)C1=C(C)N(c2ccccc2F)C(=O)/C1=C\c1cccc(OC)c1O [2008, C21]
−0.26 | 2.34 | 22.05 | 5.07 | COC(=O)C1=C(C)N(c2ccccc2Cl)C(=O)/C1=C\c1cccs1 [Compound 27]

Source: US20100179158A1, “INHIBITORS OF CYCLIC AMP PHOSPHODIESTERASES” (priority 2007, published 2010)
